From US8962810B2, “Macrocyclic heterocyclic compound for inhibiting hepatitis C virus and preparation and use thereof” (AB Pharma Ltd., priority 2011, dated 2015)

What follows are compounds tested against T1, HCV Protease (HCV NS3-4A) (Hepatitis C virus genotype 1a, UniProt P27958) (assay: HCV Protease (HCV NS3-4A) anti-activity assay, fluorescence quenching (FRET)).
T1 construct: HCV Protease: HCV NS3-4A, self-prepared; made in house
Type: biochemical
Procedure: Method of HCV Protease (HCV NS3-4A) Anti-Activity Assay:
HCV Protease (HCV NS3/4A) anti-activity was measured by an inter fluorescence quenching system. EDANS group and DABCYL group were bonded on each side of a peptide. When protein cleavage started, fluorescence quenching of EDANS by DABCYL was detected. We used a high throughput screening model for HCV NS3/4A protease inhibitors, the tested drugs were prepared with 5 different concentrations, positive control and negative control were set in the same time. In the optimized reaction system, fluorescence were determined at ex=355, em=520 by a Polarstar fluorescence detector. Calculate the inhibition rate of each concentration; calculate the half maximal inhibitory concentration (IC50) with the method of Reed-Muench.
Materials: HCV Protease: HCV NS3-4A, self-prepared, stored at −70. HCV Protease substrate (FRET-S): Ac-Asp-Glu-Asp(EDANS)-Glu-Glu-Abu-ψ-[COO]-Ala-Ser-Lys-(DABCYL)-NH2, supplied by AnaSpec USA, prepared of 100 μM by DMSO, distributed and stored at −20 without light. Buffer solution: 30 mM NaCl, 5 mM CaCl2, 10 mM DTT, 50 mM Tris (pH7.8).
Instrument: fluorescence detector Polarstar from Germany Company BMG
Preparation and operation: preparation of 10 mg/mL by DMSO, dilute of 10000, 2000, 400, 80, 16 ng/mL as tested concentrations by buffer solutions, adding 20 μL into each well, the total reaction system is 200 μL, to make the final concentrations of 1000, 200, 40, 8, 1.6 ng/mL. Add 140 μL buffer solution, 20 μL drug solution, 20 μL HCV protease, and 20 μL FRET-S substrate with final concentration of 0.25 μM into 96-well fluorescence microtiterplate, the reaction started at 37, set control wells of protease-substrate reaction and of isolate substrate and isolate protease, fluorescence signals were detected by fluorescence detector (ex=355,em=520). Calculate the inhibition rates of samples for each concentration by comparison of fluorescence value of sample in each well and the fluorescence control value of enzyme, calculate the half maximal inhibitory concentration (IC50) of samples to HCV protease with the method of Reed-Muench.
THF and Et2O were distilled from sodium metal and benzophenone. DCM, pentane and hexane were distilled form calcium hydride. Special raw materials and intermediates in the invention were supplied by Zannan SciTech Co. for ordered processing, Ltd. in Shanghai, others reagents were purchased from Shanghai reagent company, Aldrich, Acros etc. If intermediates or products of synthesis were not enough for the next step of reaction, the synthesis shall be repeated until it is sufficient. The HCV protease (HCV NS3-4A) inhibitory activity assays in the present invention were performed by relevant cooperation service units of China Institutes for Biological Science in Beijing.

T1 sequence (P27958 1658-1711): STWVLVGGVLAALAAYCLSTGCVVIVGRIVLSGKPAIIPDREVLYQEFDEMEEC
T1 sequence (P27958 1027-1657): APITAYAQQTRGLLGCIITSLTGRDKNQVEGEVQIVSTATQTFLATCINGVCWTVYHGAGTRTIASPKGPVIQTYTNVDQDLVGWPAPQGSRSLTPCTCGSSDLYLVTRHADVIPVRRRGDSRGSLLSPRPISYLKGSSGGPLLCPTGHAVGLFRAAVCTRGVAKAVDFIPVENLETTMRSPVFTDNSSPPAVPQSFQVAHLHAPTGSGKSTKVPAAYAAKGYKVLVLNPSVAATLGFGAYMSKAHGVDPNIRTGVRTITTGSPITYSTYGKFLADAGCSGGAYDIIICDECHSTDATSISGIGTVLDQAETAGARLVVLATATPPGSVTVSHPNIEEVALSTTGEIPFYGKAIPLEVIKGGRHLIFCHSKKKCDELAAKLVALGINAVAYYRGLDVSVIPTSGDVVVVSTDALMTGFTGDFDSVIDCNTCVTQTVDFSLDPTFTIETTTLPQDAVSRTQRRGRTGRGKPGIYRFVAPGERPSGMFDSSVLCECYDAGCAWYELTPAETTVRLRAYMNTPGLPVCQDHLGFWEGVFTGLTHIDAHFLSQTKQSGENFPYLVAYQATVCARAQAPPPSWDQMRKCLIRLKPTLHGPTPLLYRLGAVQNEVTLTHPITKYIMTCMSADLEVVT

IC50 | SMILES
0.1 to 5 nM | CC[C@H]1C[C@@]1(NC(=O)C1C[C@@H]2CN1C(=O)[C@H](C(C)(C)C)NC(=O)OCC1(CCCCCOc3cccc4c3CN(C4)C(=O)O2)CC1)C(=O)NS(=O)(=O)C1CC1 (stereo partly drawn) [Compound 15a]
0.1 to 5 nM | C=CC1CC1(NC(=O)C1CC2CN1C(=O)C(C(C)(C)C)NC(=O)OCCCCCCOc1cccc3c1CN(C3)C(=O)O2)C(=O)NS(=O)(=O)C1CC1 (stereo not drawn) [Compound 15aa]
0.1 to 5 nM | C=C[C@H]1C[C@@]1(NC(=O)C1C[C@@H]2CN1C(=O)[C@H](C(C)(C)C)NC(=O)OCCCCCCCOc1cccc3c1CN(C3)C(=O)O2)C(=O)NS(=O)(=O)C1CC1 (stereo partly drawn) [Compound 15ab]
0.1 to 5 nM | C=CC1CC1(NC(=O)C1CC2CN1C(=O)C(C(C)(C)C)NC(=O)OCCCCCCCCOc1cccc3c1CN(C3)C(=O)O2)C(=O)NS(=O)(=O)C1CC1 (stereo not drawn) [Compound 15ac]
0.1 to 5 nM | C=C[C@H]1C[C@@]1(NC(=O)C1C[C@@H]2CN1C(=O)[C@H](C(C)(C)C)NC(=O)OCC/C=C/COc1cccc3c1CN(C3)C(=O)O2)C(=O)NS(=O)(=O)C1CC1 (stereo partly drawn) [Compound 15ad]
0.1 to 5 nM | CC[C@H]1C[C@@]1(NC(=O)C1C[C@@H]2CN1C(=O)[C@H](C(C)(C)C)NC(=O)OCC/C=C/COc1cccc3c1CN(C3)C(=O)O2)C(=O)NS(=O)(=O)C1CC1 (stereo partly drawn) [Compound 15ae]
0.1 to 5 nM | C=C[C@H]1C[C@@]1(NC(=O)C1C[C@@H]2CN1C(=O)[C@H](C(C)(C)C)NC(=O)OCCCCCOc1cccc3c1CN(C3)C(=O)O2)C(=O)NS(=O)(=O)C1CC1 (stereo partly drawn) [Compound 15af]
0.1 to 5 nM | CC[C@H]1C[C@@]1(NC(=O)C1C[C@@H]2CN1C(=O)[C@H](C(C)(C)C)NC(=O)OCCCCCOc1cccc3c1CN(C3)C(=O)O2)C(=O)NS(=O)(=O)C1CC1 (stereo partly drawn) [Compound 15ag]
0.1 to 5 nM | C=C[C@H]1C[C@@]1(NC(=O)C1C[C@@H]2CN1C(=O)[C@H](C(C)(C)C)NC(=O)OCC(C)(C)OC/C=C/COc1cccc3c1CN(C3)C(=O)O2)C(=O)NS(=O)(=O)C1CC1 (stereo partly drawn) [Compound 15ah]
0.1 to 5 nM | CC[C@H]1C[C@@]1(NC(=O)C1C[C@@H]2CN1C(=O)[C@H](C(C)(C)C)NC(=O)OCC(C)(C)OC/C=C/COc1cccc3c1CN(C3)C(=O)O2)C(=O)NS(=O)(=O)C1CC1 (stereo partly drawn) [Compound 15aj]
0.1 to 5 nM | C=C[C@H]1C[C@@]1(NC(=O)C1C[C@@H]2CN1C(=O)[C@H](C(C)(C)C)NC(=O)OCC(C)(C)OCCCCOc1cccc3c1CN(C3)C(=O)O2)C(=O)NS(=O)(=O)C1CC1 (stereo partly drawn) [Compound 15ak]
0.1 to 5 nM | CC[C@H]1C[C@@]1(NC(=O)C1C[C@@H]2CN1C(=O)[C@H](C(C)(C)C)NC(=O)OCC(C)(C)OCCCCOc1cccc3c1CN(C3)C(=O)O2)C(=O)NS(=O)(=O)C1CC1 (stereo partly drawn) [Compound 15am]
0.1 to 5 nM | C=C[C@H]1C[C@@]1(NC(=O)C1C[C@@H]2CN1C(=O)[C@H](C(C)(C)C)NC(=O)OCCC/C=C/CCOc1cccc3c1CN(C3)C(=O)O2)C(=O)NS(=O)(=O)C1CC1 (stereo partly drawn) [Compound 15an]
0.1 to 5 nM | CC[C@H]1C[C@@]1(NC(=O)C1C[C@@H]2CN1C(=O)[C@H](C(C)(C)C)NC(=O)OCCC/C=C/CCOc1cccc3c1CN(C3)C(=O)O2)C(=O)NS(=O)(=O)C1CC1 (stereo partly drawn) [Compound 15ap]
0.1 to 5 nM | C=C[C@H]1C[C@@]1(NC(=O)C1C[C@@H]2CN1C(=O)[C@H](C(C)(C)C)NC(=O)OCC(C)(C)C/C=C/COc1cccc3c1CN(C3)C(=O)O2)C(=O)NS(=O)(=O)C1CC1 (stereo partly drawn) [Compound 15aq]
0.1 to 5 nM | CC[C@H]1C[C@@]1(NC(=O)C1C[C@@H]2CN1C(=O)[C@H](C(C)(C)C)NC(=O)OCC(C)(C)C/C=C/COc1cccc3c1CN(C3)C(=O)O2)C(=O)NS(=O)(=O)C1CC1 (stereo partly drawn) [Compound 15ar]
0.1 to 5 nM | C=C[C@H]1C[C@@]1(NC(=O)C1C[C@@H]2CN1C(=O)[C@H](C(C)(C)C)NC(=O)OCC(C)(C)CCCCOc1cccc3c1CN(C3)C(=O)O2)C(=O)NS(=O)(=O)C1CC1 (stereo partly drawn) [Compound 15as]

IC50 | SMILES
0.1 to 5 nM | C=CC1CC1(NC(=O)C1CC2CN1C(=O)C(C(C)(C)C)NC(=O)OCC(C)(C)CCCCCOc1cccc3c1CN(C3)C(=O)O2)C(=O)NS(=O)(=O)C1CC1 (stereo not drawn) [Compound 15at]
0.1 to 5 nM | C=C[C@H]1C[C@@]1(NC(=O)C1C[C@@H]2CN1C(=O)[C@H](C(C)(C)C)NC(=O)OCC(C)(C)CC/C=C/COc1cccc3c1CN(C3)C(=O)O2)C(=O)NS(=O)(=O)C1CC1 (stereo partly drawn) [Compound 15au]
5.1 to 50 nM | CC[C@H]1C[C@@]1(NC(=O)C1C[C@@H]2CN1C(=O)[C@H](C(C)(C)C)NC(=O)OCC(C)(C)CCCCCOCc1cccc3c1CN(C3)C(=O)O2)C(=O)NS(=O)(=O)C1CC1 (stereo partly drawn) [Compound 15av]
5.1 to 50 nM | CC[C@H]1C[C@@]1(NC(=O)C1C[C@@H]2CN1C(=O)[C@H](C(C)(C)C)NC(=O)OCCCCCCOCc1cccc3c1CN(C3)C(=O)O2)C(=O)NS(=O)(=O)C1CC1 (stereo partly drawn) [Compound 15aw]
0.1 to 5 nM | CC[C@H]1C[C@@]1(NC(=O)C1C[C@@H]2CN1C(=O)[C@H](C(C)(C)C)NC(=O)OCC(C)(C)CCCCOc1ccc(Cl)c3c1CN(C3)C(=O)O2)C(=O)NS(=O)(=O)C1CC1 (stereo partly drawn) [Compound 15ax]
0.1 to 5 nM | CC[C@H]1C[C@@]1(NC(=O)C1C[C@@H]2CN1C(=O)[C@H](C(C)(C)C)NC(=O)OCC1(CC/C=C/COc3cccc4c3CN(C4)C(=O)O2)CC1)C(=O)NS(=O)(=O)C1CC1 (stereo partly drawn) [Compound 15b]
0.1 to 5 nM | CC[C@H]1C[C@@]1(NC(=O)C1C[C@@H]2CN1C(=O)[C@H](C(C)(C)C)NC(=O)OCC(F)(F)CCCCOc1cccc3c1CN(C3)C(=O)O2)C(=O)NS(=O)(=O)C1CC1 (stereo partly drawn) [Compound 15ba]
5.1 to 50 nM | CC[C@H]1C[C@@]1(NC(=O)C1C[C@@H]2CN1C(=O)[C@H](C(C)(C)C)NC(=O)OCCCCCCNC(=O)c1cccc3c1CN(C3)C(=O)O2)C(=O)NS(=O)(=O)C1CC1 (stereo partly drawn) [Compound 15bb]
51 to 300 nM | CC[C@H]1C[C@@]1(NC(=O)C1C[C@@H]2CN1C(=O)[C@H](C(C)(C)C)NC(=O)OCC(C)(C)CCCCNC(=O)c1cccc3c1CN(C3)C(=O)O2)C(=O)NS(=O)(=O)C1CC1 (stereo partly drawn) [Compound 15bc]
51 to 300 nM | CCC1CC1(NC(=O)C1CC2CN1C(=O)C(C(C)(C)C)NC(=O)OCC(C)(C)CCCCCNC(=O)c1cccc3c1CN(C3)C(=O)O2)C(=O)NS(=O)(=O)C1CC1 (stereo not drawn) [Compound 15bd]
0.1 to 5 nM | CC[C@H]1C[C@@]1(NC(=O)C1C[C@@H]2CN1C(=O)[C@H](C(C)(C)C)NC(=O)OCCCCCCCOc1ccc3c(c1)CN(C3)C(=O)O2)C(=O)NS(=O)(=O)C1CC1 (stereo partly drawn) [Compound 15be]
0.1 to 5 nM | C=C[C@H]1C[C@@]1(NC(=O)C1C[C@@H]2CN1C(=O)[C@H](C(C)(C)C)NC(=O)OCCCCCCCOc1ccc3c(c1)CN(C3)C(=O)O2)C(=O)NS(=O)(=O)C1CC1 (stereo partly drawn) [Compound 15bf]
0.1 to 5 nM | CC[C@H]1C[C@@]1(NC(=O)C1C[C@@H]2CN1C(=O)[C@H](C(C)(C)C)NC(=O)OCCCC/C=C/COc1ccc3c(c1)CN(C3)C(=O)O2)C(=O)NS(=O)(=O)C1CC1 (stereo partly drawn) [Compound 15bg]
0.1 to 5 nM | C=C[C@H]1C[C@@]1(NC(=O)C1C[C@@H]2CN1C(=O)[C@H](C(C)(C)C)NC(=O)OCCCC/C=C/COc1ccc3c(c1)CN(C3)C(=O)O2)C(=O)NS(=O)(=O)C1CC1 (stereo partly drawn) [Compound 15bh]
0.1 to 5 nM | C=CC1CC1(NC(=O)C1CC2CN1C(=O)C(C(C)(C)C)NC(=O)OCCCC=CCOc1ccc3c(c1)CN(C3)C(=O)O2)C(=O)NS(=O)(=O)C1CC1 (stereo not drawn) [Compound 15bj]
5.1 to 50 nM | CCC1CC1(NC(=O)C1CC2CN1C(=O)C(C(C)(C)C)NC(=O)OCCCC=CCOc1ccc3c(c1)CN(C3)C(=O)O2)C(=O)NS(=O)(=O)C1CC1 (stereo not drawn) [Compound 15bk]
